Measured values: patent publication US6455714B1, “Labeled vitamin D compounds and the use thereof” (A & D BioScience, Inc., priority 1995, dated 2002)
Read-outs that look alike come from different tables or passages of the source.

Assays:
[1] = target: T1, Human Vitamin D-binding Protein (hDBP) (Homo sapiens, UniProt P02774)
T1 sequence (P02774 17-474): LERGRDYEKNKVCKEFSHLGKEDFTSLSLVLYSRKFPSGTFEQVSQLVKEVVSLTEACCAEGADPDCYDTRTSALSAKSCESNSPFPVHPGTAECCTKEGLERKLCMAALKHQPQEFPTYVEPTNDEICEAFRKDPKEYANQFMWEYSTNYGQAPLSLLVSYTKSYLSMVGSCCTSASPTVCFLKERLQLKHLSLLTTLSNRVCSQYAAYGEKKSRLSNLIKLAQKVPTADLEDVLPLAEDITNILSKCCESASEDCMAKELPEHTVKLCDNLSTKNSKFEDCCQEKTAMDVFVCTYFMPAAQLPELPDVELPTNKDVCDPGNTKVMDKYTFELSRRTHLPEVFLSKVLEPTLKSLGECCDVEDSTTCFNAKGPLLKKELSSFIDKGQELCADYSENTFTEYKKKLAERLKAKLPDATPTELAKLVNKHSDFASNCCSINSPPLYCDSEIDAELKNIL
Description: Competitive Radioligand Binding Assays of Aanalogs (C) and (F) with Human Vitamin D-binding Protein (hDBP)
These assays were carried out to determine the viability of these synthetic analogs to serve as substrates for hDBP.

DBP [2] = target: T2, DBP (Homo sapiens, UniProt P02774); experiment: Checkerboard titration (ELISA) of DBP and compound C to obtain a colorimetric signal; assay type: binding; details: with minimum 6.25 ng DBP; color determined visually
T2 construct: purchased Calbiochem, San Diego, Calif
T2 sequence (P02774 17-474): T1 sequence (P02774 17-474)
Description: The method involves attachment of DBP to an ELISA plate followed by the addition of a known quantity of 25-OH-D3-biotin conjugate (compound C). […] Excess amount of C is washed off, and an excess of avidin is added which gets bound to biotin attached to 25-OH-D3. The plate is then incubated in sequence with anti-avidin antibody, a secondary antibody coupled to horseradish peroxidase (HRP), and ABTS (2,2′-azino-di-(3-ethylbenzthiazoline)sulfonate, the substrate that produces a […] color which may be monitored spectrophotometrically or visually. The intensity (absorbance) of the color is directly proportional to the concentration of compound C. In the first experiment, the optimal concentrations of DBP and compound C to develop color were determined (visually). In this experiment, each sample of DBP was tested against each amount of compound C.
A. Determination of the Optimal Amount of DBP and Compound (C) in a Checkerboard Titration (ELISA) to obtain a Colorimetric Signal
Add different amounts of purified hDBP (From Calbiochem, San Diego, Calif., in 100 mM Na2CO3 buffer, pH 8.4) to wells of an ELISA plate
Block excess sites with BSA (1 mg/ml, 300 μl)
↓ wash with PBS containing 0.05% TWEEN 20
Add different amounts of C in EtOH
Wash with PBS containing 0.05% TWEEN 20 (Biorad, Richmond, Calif.) […]
Color development detected visually or spectrophotometrically.

DBP [3] = target: T2, DBP; experiment: ELISA to demonstrate that compound C can be competed out with 25-OH-D3; assay type: binding; details: 2 μg 25-OH-D3 added with C (30, 60, 120 ng); triplicate
Description: In the next experiment, it was determined whether it would be possible to displace compound C, bound to DBP (which is attached to an ELISA plate), with a known concentration of 25-OH-D3. In a real sample, one will be measuring the amount of 25-OH-D and not that of compound C.
Procedure: same as before, except either C, or C and 2 μg of 25-OH-D3 were added to each plate. Each concentration (point) was done in triplicate. The blank contained no 25-OH-D3 or C.
Furthermore, the amount of compound C is […] to the concentration of added 25-OH-D3.

Molecule: C=C1CC[C@H](OCCCNC(=O)CCCCCNC(=O)CCCC[C@@H]2SC[C@@H]3NC(=O)N[C@@H]32)C/C1=C/C=C1\CCC[C@]2(C)[C@@H]([C@H](C)CCCC(C)(C)O)CC[C@@H]12 [C, Conjugate of 25-OH-D3-3-Aminopropyl Ether and Biotin-X-NHS]
- ability to replace 25-OH-D3 for DBP binding [1]: can replace 25-OH-D3 for DBP binding
- times less efficient than 25-OH-D3 in displacing 3H-25-OH-D3 bound to hDBP [1]: ~11 times
- minimum amount required to obtain yellow color (DBP [2]): 30 ng

Molecule: C=C1CC[C@H](O)C/C1=C/C=C1\CCC[C@]2(C)[C@@H]([C@H](C)CCCC(C)(C)O)CC[C@@H]12 [Compound 25-OH-D3, 25-hydroxyvitamin D3]
- displacement of compound C bound to DBP on an ELISA plate (color development) (DBP [3]): capable of displacing compound C bound to DBP

Molecule: Biotin conjugate of 25-OH-D3-3-aminopropyl-3-(6-amino) hexanoic acid
- ability to replace 25-OH-D3 for DBP binding ([1]; FIG. 1): can replace 25-OH-D3 for DBP binding
